Test results taken from patent publication US9180082B2, “Biotin-conjugated hexapeptide-2 derivative and use thereof” (INCOSPHARM CORPORATION, priority 2012, dated 2015).
Where a SMILES comes first, the peptide text is derived from it. [ ]: non-standard residue; d: D form. The star is where a group is joined. ξ: configuration not given here. Biotin = O=C1N[C@H]2[C@H](CS[C@H]2CCCCC(=O)*)N1; ξW = NC(Cc1c[nH]c2ccccc12)C(=O)O; ξH = NC(Cc1c[nH]cn1)C(=O)O; ξF = NC(Cc1ccccc1)C(=O)O; ξK = NCCCCC(N)C(=O)O; ξA = CC(N)C(=O)O

Legend:
[1] = system: type 1 collagen biosynthesis in fibroblasts; assay: Type 1 collagen biosynthesis-promoting ability, ELISA of fibroblast culture supernatants; format: cell-based; settings: supernatants of human dermal fibroblasts; dilutions of 200 uM, 20 uM and 2 uM, each 100 ul added to 100 ul medium; incubation 48 hours; FIG. 2
Procedure: The type 1 collagen produced was measured by ELISA assay to examine the effect of promoting collagen biosynthesis, and a control group with no sample added was considered as 100% to calculate the relative type 1 collagen production ability.
Thereafter, fibroblast culture supernatants described in Example 2 were treated to the 96-well plate coated with type 1 collagen antibodies, and reacted at room temperature for 2 hours. […] Reaction was stopped using 2 N hydrochloric acid, and absorbance was measured at 450 nm.

[2] = system: Human normal fibroblasts (Human Dermal Fibroblast neonatal); assay: Cytotoxicity test by MTT assay; format: cell-based; settings: dilutions of 200 uM, 20 uM and 2 uM, each 100 ul added to 100 ul medium, incubation 48 hours, FIG. 1
Procedure: In order to examine cytotoxicity of the biotin-conjugated hexapeptide-2 peptide synthesized in Example 1, the following experiment was performed. Cytotoxicity was examined by MTT assay, and a control group with no sample added was considered as 100% to calculate relative cytotoxicity. The detailed experimental method is as follows. Human normal fibroblasts (Human Dermal Fibroblast neonatal) were seeded in a 96-well plate for cell culture at a density of 3,000 cells per well, and cultured in 10% FBS (Fetal bovine serum)-containing DMEM (Dulbecco's Modified Eagle Media, Gibco BRL) in a 37° C., 5% CO2 incubator for 24 hours. Each test material was dissolved in water at a concentration of 10 mM to prepare concentrates, and the concentrates were diluted with 0.5% FBS-containing DMEM at a concentration of 200 uM, 20 uM, and 2 uM. Then, each 100 ul of the diluted solutions was added to each well previously containing 100 ul of the medium, followed by incubation for 48 hours. After completing the cultivation, the supernatants were used to determine the amount of type 1 collagen produced (Example 3), and the cells were used to determine cytotoxicity. […] Thereafter, the supernatant was carefully removed, and MTT formazan precipitates in the cells were dissolved in 100 ul of DMSO to determine absorbance at OD570 using an ELISA reader.

Row | SMILES | type 1 collagen biosynthesis (ELISA, relative to control group with no sample added = 100%) [1] | cytotoxicity (MTT assay, relative to control group with no sample added = 100%) [2]
1 | CC(NC(=O)C(Cc1c[nH]c2ccccc12)NC(=O)C(Cc1c[nH]cn1)NC(=O)CCCC[C@@H]1SC[C@@H]2NC(=O)N[C@@H]21)C(=O)NC(Cc1c[nH]c2ccccc12)C(=O)NC(Cc1ccccc1)C(=O)NC(CCCCN)C(N)=O (stereo partly drawn) [biotin-conjugated hexapeptide-2] (Biotin-[ξH][ξW][ξA][ξW][ξF][ξK]-NH2) | significant increase | –
2 | O=C(O)CCCC[C@@H]1SC[C@@H]2NC(=O)N[C@@H]21 [biotin] | no increase | –
3 | C[C@H](NC(=O)[C@@H](Cc1c[nH]c2ccccc12)NC(=O)[C@@H](N)Cc1c[nH]cn1)C(=O)N[C@@H](Cc1c[nH]c2ccccc12)C(=O)N[C@H](Cc1ccccc1)C(=O)N[C@@H](CCCCN)C(N)=O [hexapeptide-2, His-D-Trp-Ala-Trp-D-Phe-Lys-NH2] (H-H[dW]AW[dF]K-NH2) | – | no cytotoxicity
